Reference: ChEMBL document CHEMBL4330185, “Computer-Assisted Discovery and Structural Optimization of a Novel Retinoid X Receptor Agonist Chemotype” (ACS Med Chem Lett, 2019)
Values after ≈ are worked out from the molar mass of the structure shown. Active and inactive are the calls of the source. No cut-off for these calls is given here.

Experiments:
[1] = biological target: T1, Retinoic acid receptor RXR-gamma (Homo sapiens, UniProt P48443); assay: Agonist activity at human Gal4-DBD fused RXRgamma LBD expressed in HEK293T cells after 12 to 14 hrs by luciferase reporter gene assay; assay type: cell-based
T1 sequence (P48443 whole entry): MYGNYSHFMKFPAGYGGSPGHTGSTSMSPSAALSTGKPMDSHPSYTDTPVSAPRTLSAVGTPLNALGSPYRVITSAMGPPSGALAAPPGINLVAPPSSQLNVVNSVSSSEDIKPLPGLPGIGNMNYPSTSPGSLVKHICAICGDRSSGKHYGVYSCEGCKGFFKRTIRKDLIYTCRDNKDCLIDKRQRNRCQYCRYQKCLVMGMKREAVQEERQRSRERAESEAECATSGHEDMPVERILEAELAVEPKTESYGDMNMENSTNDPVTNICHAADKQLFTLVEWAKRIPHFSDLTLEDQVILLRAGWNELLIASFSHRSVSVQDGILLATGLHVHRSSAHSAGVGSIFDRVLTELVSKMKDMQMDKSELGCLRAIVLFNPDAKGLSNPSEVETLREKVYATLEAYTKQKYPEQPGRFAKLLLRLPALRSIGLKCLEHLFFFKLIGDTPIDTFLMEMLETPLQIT

[2] = biological target: T2, Retinoic acid receptor RXR-alpha (Homo sapiens, UniProt P19793); assay: Agonist activity at human Gal4-DBD fused RXRalpha LBD expressed in HEK293T cells after 12 to 14 hrs by luciferase reporter gene assay; assay type: cell-based
T2 sequence (P19793 whole entry): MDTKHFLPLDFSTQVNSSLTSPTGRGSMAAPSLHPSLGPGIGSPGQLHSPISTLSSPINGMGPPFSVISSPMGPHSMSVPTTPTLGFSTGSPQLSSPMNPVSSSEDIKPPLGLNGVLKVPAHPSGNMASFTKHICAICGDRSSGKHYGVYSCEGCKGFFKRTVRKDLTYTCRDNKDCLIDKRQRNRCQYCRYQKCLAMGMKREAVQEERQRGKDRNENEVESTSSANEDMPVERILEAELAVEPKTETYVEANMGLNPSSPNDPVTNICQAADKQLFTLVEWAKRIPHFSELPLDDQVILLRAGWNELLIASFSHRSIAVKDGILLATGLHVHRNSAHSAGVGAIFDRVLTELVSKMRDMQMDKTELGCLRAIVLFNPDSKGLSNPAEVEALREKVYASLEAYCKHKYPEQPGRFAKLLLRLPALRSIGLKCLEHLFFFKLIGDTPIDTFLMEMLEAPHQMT

[3] = biological target: T3, Retinoic acid receptor RXR-gamma (Homo sapiens) (UniProt P48443); assay: Agonist activity at human Gal4-DBD fused RXRgamma LBD expressed in HEK293T cells after 12 to 14 hrs by luciferase reporter gene assay relative to bexarotene; assay type: cell-based
T3 sequence (whole entry): T1 sequence (P48443 whole entry)

[4] = biological target: T4, Retinoic acid receptor RXR-alpha (Homo sapiens) (UniProt P19793); assay: Agonist activity at human Gal4-DBD fused RXRalpha LBD expressed in HEK293T cells after 12 to 14 hrs by luciferase reporter gene assay relative to bexarotene; assay type: cell-based
T4 sequence (whole entry): T2 sequence (P19793 whole entry)

[5] = biological target: T5, Retinoic acid receptor RXR-beta (Homo sapiens) (UniProt P28702); assay: Agonist activity at human Gal4-DBD fused RXRbeta LBD expressed in HEK293T cells after 12 to 14 hrs by luciferase reporter gene assay relative to bexarotene; assay type: cell-based
T5 sequence (whole entry): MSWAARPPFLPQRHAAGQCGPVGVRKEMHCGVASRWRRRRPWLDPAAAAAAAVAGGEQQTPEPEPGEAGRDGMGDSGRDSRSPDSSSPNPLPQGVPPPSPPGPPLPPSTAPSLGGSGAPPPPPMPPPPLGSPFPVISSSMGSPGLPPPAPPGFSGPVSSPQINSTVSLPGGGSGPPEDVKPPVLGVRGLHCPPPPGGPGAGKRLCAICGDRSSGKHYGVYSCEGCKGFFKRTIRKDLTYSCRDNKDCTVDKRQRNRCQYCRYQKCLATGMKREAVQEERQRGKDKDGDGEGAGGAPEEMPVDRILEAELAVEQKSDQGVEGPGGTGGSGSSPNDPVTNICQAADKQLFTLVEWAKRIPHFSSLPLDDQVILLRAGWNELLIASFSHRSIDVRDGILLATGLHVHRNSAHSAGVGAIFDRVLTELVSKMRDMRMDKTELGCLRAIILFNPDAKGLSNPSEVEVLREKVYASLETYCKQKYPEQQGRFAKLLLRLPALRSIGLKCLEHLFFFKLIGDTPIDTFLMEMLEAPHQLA

[6] = biological target: T6, Retinoic acid receptor RXR-beta (Homo sapiens, UniProt P28702); assay: Agonist activity at human Gal4-DBD fused RXRbeta LBD expressed in HEK293T cells after 12 to 14 hrs by luciferase reporter gene assay; assay type: cell-based
T6 sequence (P28702 whole entry): T5 sequence (whole entry)

[7] = Lipophilicity, log P of the compound by HPLC analysis; assay type: physicochemical
HepG2 = assay: Cytotoxicity against human HepG2 cells up to 100 uM after 48 hrs by WST1 assay; assay type: cell-based; conditions: hepg2, 48 h
[8] = Aqueous solubility of the compound after 24 hrs by HPLC analysis; assay type: physicochemical; conditions: water
[9] = biological target: T3, Retinoic acid receptor RXR-gamma (Homo sapiens); assay: Agonist activity at human Gal4-DBD fused RXRgamma LBD expressed in HEK293T cells at 30 uM after 12 to 14 hrs by luciferase reporter gene assay; assay type: cell-based
[10] = biological target: T4, Retinoic acid receptor RXR-alpha (Homo sapiens); assay: Agonist activity at human Gal4-DBD fused RXRalpha LBD expressed in HEK293T cells at 10 uM after 12 to 14 hrs by luciferase reporter gene assay; assay type: cell-based

Structure (SMILES)	EC50 ([1]; read-out: EC50)	EC50 ([2]; read-out: EC50)	Emax [3]	Emax [4]	Emax [5]	EC50 ([6]; read-out: EC50)	also measured
O=C(O)c1ccc(COc2cccc(Cl)c2)cc1	44 µM	17 µM	9.3%	54%	26%	20 µM	–
CC(C)(C)c1ccc(OCc2ccc(C(=O)O)cc2)c(-c2ccccc2)c1	> 30 µM	> 30 µM	–	–	–	> 30 µM	–
O=C(O)c1ccc(OCc2ccccc2-c2ccccc2)cc1	–	> 30 µM	–	–	–	> 30 µM	EC50 [1]: Nd(Toxic)
O=C(O)c1ccc(COc2cc3c(cc2-c2ccccc2)CCC3)cc1	> 30 µM	> 30 µM	–	–	–	> 30 µM	–
O=C(O)c1ccc(COc2ccccc2Cl)cc1	> 30 µM	9.9 µM	–	58%	31%	8.3 µM	–
O=C(O)c1ccc(COc2ccc(Br)cc2)cc1	> 30 µM	40 µM	–	21%	36%	48 µM	–
O=C(O)c1ccc(COc2ccccc2F)cc1	> 30 µM	> 30 µM	–	–	–	> 30 µM	–
CC(C)(C)c1ccc(OCc2ccc(C(=O)O)cc2)c(Cl)c1	4 µM	4.2 µM	14%	37%	36%	5.3 µM	–
C=C(c1ccc(C(=O)O)cc1)c1cc2c(cc1C)C(C)(C)CCC2(C)C [BEXAROTENE]	–	–	–	–	–	–	logP [7]: 5.2; Activity (HepG2): Non-Toxic; solubility at 24 h [8]: 0.31 µg/mL (≈ 0.89 µM)
O=C(O)c1ccccc1COc1ccc2c(c1)CCC2	> 30 µM	> 30 µM	–	–	–	> 30 µM	–
CCc1ccc(OCc2ccc(C(=O)O)cc2)cc1	–	28 µM	–	11%	7.4%	35 µM	Activity [9]: inactive
O=C(O)CCc1ccc(COc2ccc3c(c2)CCC3)cc1	21 µM	6.7 µM	19%	28%	29%	10 µM	–
O=C(O)c1ccc(COc2ccccc2C(F)(F)F)cc1	10 µM	1.1 µM	52%	22%	22%	2.1 µM	–
O=C(O)c1ccc(OCc2ccc3c(c2)CCC3)cc1	> 30 µM	> 30 µM	–	–	25%	21 µM	–
CC(C)(C)c1ccc(OCc2ccc(C(=O)O)cc2)cc1	> 30 µM	7.8 µM	–	16%	15%	8.9 µM	Activity [10]: Active
O=C(O)c1ccc(COc2ccccc2)cc1	> 30 µM	> 30 µM	–	–	–	> 30 µM	–

Structure (SMILES)	EC50 ([1]; read-out: EC50)	EC50 ([2]; read-out: EC50)	Emax [3]	Emax [4]	Emax [5]	EC50 ([6]; read-out: EC50)	also measured
COc1ccccc1OCc1ccc(C(=O)O)cc1	> 30 µM	29 µM	–	21%	–	> 30 µM	–
CC(C)(C)c1ccccc1OCc1ccc(C(=O)O)cc1	1.1 µM	0.16 µM	21%	11%	12%	0.37 µM	–
O=C(O)c1ccc(CNc2ccc3c(c2)CCC3)cc1	> 30 µM	> 30 µM	–	–	–	> 30 µM	–
CN(Cc1ccc(C(=O)O)cc1)c1ccc2c(c1)CCC2	30 µM	10 µM	8.5%	22%	15%	9.9 µM	–
O=C(O)c1ccc(OCc2cccc(Cl)c2)cc1	29 µM	27 µM	29%	27%	24%	28 µM	–
O=C(O)Cc1ccc(COc2ccc3c(c2)CCC3)cc1	22 µM	13 µM	8.8%	47%	9.9%	18 µM	–
Cc1ccccc1OCc1ccc(C(=O)O)cc1	19 µM	5 µM	19%	24%	27%	8.6 µM	–
O=C(O)c1ccc(COc2ccc(C(F)(F)F)cc2C(F)(F)F)cc1	11 µM	6 µM	49%	118%	66%	4.3 µM	–
O=C(O)CCCc1ccc(COc2ccc3c(c2)CCC3)cc1	–	–	–	–	–	–	EC50 [1]: Nd(Toxic); EC50 [2]: Nd(Toxic); EC50 [6]: Nd(Toxic)
Cc1ccc(OCc2ccc(C(=O)O)cc2)c(-c2ccccc2)c1	–	> 30 µM	–	–	–	> 30 µM	EC50 [1]: Nd(Toxic)
O=C(O)c1ccc(COc2ccccc2OC(F)(F)F)cc1	4.2 µM	1.1 µM	25%	26%	18%	1.9 µM	–
CC(C)(C)c1ccc(OCc2ccc(C(=O)O)cc2)c(C(C)(C)C)c1	–	–	–	–	–	–	EC50 [1]: Nd(Toxic); EC50 [2]: Nd(Toxic); EC50 [6]: Nd(Toxic)
CC(C)c1ccc(OCc2ccc(C(=O)O)cc2)cc1	–	16 µM	–	11%	9.5%	16 µM	Activity [9]: inactive
O=C(O)c1ccc(COc2ccc(I)cc2)cc1	> 30 µM	24 µM	–	19%	25%	29 µM	–
O=C(O)c1ccc(COc2ccc(Cl)cc2)cc1	> 30 µM	> 30 µM	–	–	–	> 30 µM	–
